Molecular target: Sigma non-opioid intracellular receptor 1 (Cavia porcellus) (UniProt Q60492)
Test: Binding affinity was evaluated using [3H]pentazocine binding to sigma-1 receptor from guinea pig brain

Sigma non-opioid intracellular receptor 1 (Cavia porcellus), sequence (Q60492 whole entry, looked up): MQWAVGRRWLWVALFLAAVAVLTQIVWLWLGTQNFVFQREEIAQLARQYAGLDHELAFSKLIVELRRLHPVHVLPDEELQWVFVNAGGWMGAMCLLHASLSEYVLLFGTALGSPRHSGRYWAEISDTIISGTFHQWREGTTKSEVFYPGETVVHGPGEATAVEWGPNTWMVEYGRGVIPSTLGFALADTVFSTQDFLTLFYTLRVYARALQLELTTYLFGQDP

SMILES	IC50 [nM]
C[C@H]1CN(CCCn2c3ccccc3c3ccccc32)C[C@H](C)N1C	897
CC1CN(CCCn2c3ccccc3c3ccccc32)CC(C)N1CCN=C=S (centres undefined) [9-{3-[4-(2-Isothiocyanato-ethyl)-3,5-dimethyl-piperazin-1-yl]-propyl}-9H-carbazole]	949
CC1CN(CCCn2c3ccccc3c3ccccc32)CC(C)N1CCCN=C=S (centres undefined) [9-{3-[4-(3-Isothiocyanato-propyl)-3,5-dimethyl-piperazin-1-yl]-propyl}-9H-carbazole]	1830
CC1CN(CCCn2c3ccccc3c3ccccc32)CC(C)N1CCCCCCN=C=S (centres undefined) [9-{3-[4-(6-Isothiocyanato-hexyl)-3,5-dimethyl-piperazin-1-yl]-propyl}-9H-carbazole]	707

— BindingDB's records for doi:10.1021/jm9705519 (National Institute On Drug Abuse-Intramural Research Program, 1998)
